Tests used:
Assay type in all cases: cell-based
MDA-MB-231 cells = test: MDA-MB-231 cell proliferation assay (Cell-Titer-Glo, 120 hr); details: for EC50: Homo sapiens, MDA-MB-231, 120 h, read-out: MDA-MB 231 Cell Prolif. 120 hr EC50; for MDA-MB 231 Cell Prolif. 120 hr YMin (%): minimal percent of DMSO control observed
Source text: (§1) MKN45 cells were obtained from Celgene internal cell banks and cultured in RPMI complete media (RPMI-1640, 1× Penicillin/Streptomycin, 1× glutamine, 1× Sodium Pyruvate, Non-essential Amino Acids, 10% Fetal Bovine serum, all component from Thermo-Fisher). MDA-MB-231 cells were obtained from the ATCC (HTB-26) and cultured in RPMI-1640 and 10% Fetal Bovine serum; MDA-MB-231 cells were expanded and stored as aliquots in liquid nitrogen in Celgene internal cell banks. Compounds were dispensed into 384-well plates using an HP DE300 compound printer in triplicate with 8 compounds on each plate. Compounds were dispensed into 384-well black clear bottom plates (Corning #3764BC) using an EDC acoustic dispenser at BMS. For each compound, a 10-point dose response was printed at half-log dilutions starting at either 1 uM or 10 uM in triplicate for MKN45 cells and in duplicate for MDA-MB-231 cells. The DMSO concentration was kept constant for a final assay concentration of 0.1% per well assuming 50 ul final media volume. Compound plates were sealed and frozen at −20 C until use.
(§2) For each assay batch, compound plates were thawed and allowed to reach room temperature, and cells were seeded at 400 MKN45 cells per well, or 800 MDA-MB-231 cells per well, in 50 ul media listed above for each cell line. After 120 hours of incubation at 37 C and 5% CO2, cells were lysed by addition of 25 μL of Cell-Titer-Glo Reagent (Promega Corporation, Madison, WI), as per manufacturer's instructions, protected from light, shaken for 45 minutes, and total luminescence read by a Perkin Elmer Envision plate reader. Total luminescence signal is linearly correlated with cell number remaining in the well.
(§3) Luminescence data was processed per plate by subtracting reagent-only “blank” well luminescence from all measured values and calculating a percent of DMSO control value for each treatment well. Then, to determine the half-maximal effective concentration (EC50) values for cell growth inhibition, a four parameter logistic model was fit to the data for each DMSO-normalized compound: Sigmoidal Dose-Response Model: (FIT=(A+((B−A)/1+((C/x)^D)))) where C is the inflection point ([…]), D is the Hill slope, and A and B are the low and high limits of the fit respectively. The lower limit of the fit (value A) is referred to as Ymin-calculated. The minimal percent of DMSO control that is observed in the concentrations tested for each compound is labeled as “Ymin-obs”, and was recorded and reported in the tables. Sigmoidal fit curves were processed and evaluated using Activity Base (IDBS, Alameda, CA) or using Dotmatics (Boston, MA). N/A=not available at the present time.

MKN45 cells = test: MKN45 cell proliferation assay (Cell-Titer-Glo, 120 hr); details: for EC50: Homo sapiens, MKN-45, 120 h, read-out: MKN45 Cell Prolif. 120 hr EC50; for MKN45 Cell Prolif. 120 hr YMin (%): minimal percent of DMSO control observed
Source text: as §1, §2, §3

WEE1 = molecular target: T1, WEE1 (Homo sapiens, UniProt P30291+Q96SW2); test: WEE1-ePL degradation assay (293T-LentiX, InCELL Hunter luminescence, 4 hr); details: for DC50: LentiX-HEK293T cells expressing WEE1-ePL, 4 hr incubation, read-out: 293T-LentiX WEE1-ePL Degradation 4 hr EC50; for 293T-LentiX WEE1-ePL Degradation 4 hr YMin (%): lower limit of fit, % of DMSO control signal remaining
T1 construct: C-terminal ePL-tagged (DiscoverX, Fremont, CA) full-length WEE1 expression construct; expressed in transfected cells; host or cells: LentiX-HEK293T (Invitrogen), lentivirally transduced; the cells also over-express GSPT1-GN
T1 sequence (P30291 whole entry): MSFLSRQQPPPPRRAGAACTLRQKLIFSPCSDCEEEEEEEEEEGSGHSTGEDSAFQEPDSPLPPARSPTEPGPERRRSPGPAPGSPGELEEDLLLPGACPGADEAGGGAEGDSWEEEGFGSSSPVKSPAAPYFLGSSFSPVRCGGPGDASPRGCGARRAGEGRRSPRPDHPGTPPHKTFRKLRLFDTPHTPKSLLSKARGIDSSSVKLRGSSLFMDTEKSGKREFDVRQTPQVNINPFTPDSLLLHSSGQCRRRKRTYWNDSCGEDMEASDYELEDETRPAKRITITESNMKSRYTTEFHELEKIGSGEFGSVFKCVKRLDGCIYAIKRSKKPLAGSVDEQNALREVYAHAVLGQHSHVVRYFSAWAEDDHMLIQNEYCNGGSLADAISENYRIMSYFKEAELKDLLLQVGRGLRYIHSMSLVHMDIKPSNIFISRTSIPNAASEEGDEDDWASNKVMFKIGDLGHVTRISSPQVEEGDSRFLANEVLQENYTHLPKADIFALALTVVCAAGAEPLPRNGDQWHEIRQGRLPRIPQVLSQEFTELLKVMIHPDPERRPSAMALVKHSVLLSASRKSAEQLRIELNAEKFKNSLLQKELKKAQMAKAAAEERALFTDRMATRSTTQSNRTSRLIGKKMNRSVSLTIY
T1 sequence (Q96SW2 whole entry): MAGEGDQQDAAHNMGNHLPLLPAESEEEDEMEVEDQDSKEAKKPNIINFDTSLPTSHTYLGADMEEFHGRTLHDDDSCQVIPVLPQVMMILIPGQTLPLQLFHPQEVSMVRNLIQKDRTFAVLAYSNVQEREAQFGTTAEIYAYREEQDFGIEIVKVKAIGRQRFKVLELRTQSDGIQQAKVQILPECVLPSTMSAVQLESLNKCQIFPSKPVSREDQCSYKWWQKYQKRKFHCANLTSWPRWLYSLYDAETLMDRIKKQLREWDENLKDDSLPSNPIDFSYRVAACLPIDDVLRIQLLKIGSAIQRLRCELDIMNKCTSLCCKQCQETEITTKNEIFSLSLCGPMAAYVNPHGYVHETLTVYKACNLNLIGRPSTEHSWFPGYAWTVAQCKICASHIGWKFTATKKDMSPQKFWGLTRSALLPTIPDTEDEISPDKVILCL
T1 sequence (Q16531 whole entry partner): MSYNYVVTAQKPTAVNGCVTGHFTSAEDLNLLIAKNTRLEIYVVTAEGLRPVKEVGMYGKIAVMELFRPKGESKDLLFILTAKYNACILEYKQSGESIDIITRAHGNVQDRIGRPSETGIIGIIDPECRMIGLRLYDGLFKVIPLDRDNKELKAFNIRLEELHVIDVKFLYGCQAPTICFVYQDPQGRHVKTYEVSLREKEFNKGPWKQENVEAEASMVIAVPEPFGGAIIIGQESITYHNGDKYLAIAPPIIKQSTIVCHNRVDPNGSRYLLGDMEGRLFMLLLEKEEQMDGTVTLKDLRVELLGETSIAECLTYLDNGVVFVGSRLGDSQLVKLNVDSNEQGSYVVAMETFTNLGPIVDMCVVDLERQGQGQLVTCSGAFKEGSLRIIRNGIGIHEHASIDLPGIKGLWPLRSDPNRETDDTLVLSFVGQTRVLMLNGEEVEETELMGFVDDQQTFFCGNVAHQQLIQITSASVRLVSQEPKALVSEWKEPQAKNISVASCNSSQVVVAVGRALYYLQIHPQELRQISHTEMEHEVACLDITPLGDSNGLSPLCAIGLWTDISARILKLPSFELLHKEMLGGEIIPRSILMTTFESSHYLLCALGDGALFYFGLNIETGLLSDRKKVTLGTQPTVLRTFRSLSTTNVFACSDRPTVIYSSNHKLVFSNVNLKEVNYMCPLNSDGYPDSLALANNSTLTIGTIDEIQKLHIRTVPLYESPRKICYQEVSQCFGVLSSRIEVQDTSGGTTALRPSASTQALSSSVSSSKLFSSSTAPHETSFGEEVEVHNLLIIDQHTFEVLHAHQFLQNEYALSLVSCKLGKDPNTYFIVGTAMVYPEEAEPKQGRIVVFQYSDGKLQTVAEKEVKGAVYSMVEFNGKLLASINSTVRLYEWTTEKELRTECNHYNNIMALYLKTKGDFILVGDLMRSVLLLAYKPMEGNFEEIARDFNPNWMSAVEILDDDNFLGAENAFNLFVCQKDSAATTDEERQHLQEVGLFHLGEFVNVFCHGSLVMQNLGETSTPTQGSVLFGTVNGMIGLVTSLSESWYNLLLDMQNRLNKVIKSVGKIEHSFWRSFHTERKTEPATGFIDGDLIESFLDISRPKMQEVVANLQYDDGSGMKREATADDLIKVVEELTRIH
Method in brief: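 LentiX-HEK293T cells expressing C-terminally ePL-tagged full-length WEE1 plus non-degradable GSPT1-GN (G575N, N-terminal 158 aa truncated). Treated 4 h at 37 °C with a 10-point, 3-fold series from 1 or 10 µM, then read by InCELL Hunter luminescence. EC50 from four-parameter logistic fit, Ymax set by DMSO control.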

Row | Structure (SMILES) | EC50 (MDA-MB-231 cells) [nM] | MDA-MB 231 Cell Prolif. 120 hr YMin (%) (MDA-MB-231 cells) | EC50 (MKN45 cells) [nM] | MKN45 Cell Prolif. 120 hr YMin (%) (MKN45 cells) | DC50 (WEE1) [nM] | 293T-LentiX WEE1-ePL Degradation 4 hr YMin (%) (WEE1)
1 | COC[C@@H]1CN(Cc2cc(F)c3nc(C4CCN(CC(F)(F)F)C4)ccc3c2)C[C@H]1Oc1ccc2c(c1)CN([C@H]1CCC(=O)NC1=O)C2=O (relative stereo) [Example 68, rel-(3S)-3-(5-(((3S,4S)-1-((8-fluoro-2-(1-(2,2,2-trifluoroethyl)pyrrolidin-3-yl)quinolin-6-yl)methyl)-4-(methoxymethyl)pyrrolidin-3-yl)oxy)-1-oxoisoindolin-2-yl)piperidine-2,6-dione] | 14 | 17.4 | 1 | 8.9 | 2 | 26.4
2 | COC[C@@H]1CN(Cc2cc(F)c3nc(C4CCCCO4)ccc3c2)C[C@H]1Oc1ccc2c(c1)CN([C@H]1CCC(=O)NC1=O)C2=O (relative stereo) [Example 69, rel-(3S)-3-(5-{[(3S,4S)-1-{[8-fluoro-2-(oxan-2-yl)quinolin-6-yl]methyl}-4-(methoxymethyl)pyrrolidin-3-yl]oxy}-1-oxo-2,3-dihydro-1H-isoindol-2-yl)piperidine-2,6-dione] | 9 | 20.5 | 1 | 8.6 | – | 27.7
3 | COC[C@@H]1CN(Cc2cc(F)c3nc(C4CCCOC4)ccc3c2)C[C@H]1Oc1ccc2c(c1)CN([C@H]1CCC(=O)NC1=O)C2=O (relative stereo) [Example 70, rel-(3S)-3-(5-{[(3S,4S)-1-{[8-fluoro-2-(oxan-3-yl)quinolin-6-yl]methyl}-4-(methoxymethyl)pyrrolidin-3-yl]oxy}-1-oxo-2,3-dihydro-1H-isoindol-2-yl)piperidine-2,6-dione] | 18 | 26.1 | 1 | 11.9 | 1 | 28.9
4 | COC[C@@H]1CN(Cc2cc(F)c3nc(C4CCCN4C)ncc3c2)C[C@H]1Oc1ccc2c(c1)CN([C@H]1CCC(=O)NC1=O)C2=O (relative stereo) [Example 77, rel-(3S)-3-(5-{[(3S,4S)-1-{[8-fluoro-2-(1-methylpyrrolidin-2-yl)quinazolin-6-yl]methyl}-4-(methoxymethyl)pyrrolidin-3-yl]oxy}-1-oxo-2,3-dihydro-1H-isoindol-2-yl)piperidine-2,6-dione] | 332 | 80.1 | 43 | 13.1 | 23 | 25.5
5 | COC[C@@H]1CN(Cc2cc(F)c3nc(C4CCCOC4)ncc3c2)C[C@H]1Oc1ccc2c(c1)CN([C@H]1CCC(=O)NC1=O)C2=O (relative stereo) [Example 78, rel-(3S)-3-(5-{[(3S,4S)-1-{[8-fluoro-2-(oxan-3-yl)quinazolin-6-yl]methyl}-4-(methoxymethyl)pyrrolidin-3-yl]oxy}-1-oxo-2,3-dihydro-1H-isoindol-2-yl)piperidine-2,6-dione] | 27 | 22.5 | 4 | 7.7 | 3 | 27.1
6 | COC[C@@H]1CN(Cc2cc(F)c3nc(C4CCCCO4)ncc3c2)C[C@H]1Oc1ccc2c(c1)CN([C@H]1CCC(=O)NC1=O)C2=O (relative stereo) [Example 96, rel-(3S)-3-(5-{[(3S,4S)-1-{[8-fluoro-2-(oxan-2-yl)quinazolin-6-yl]methyl}-4-(methoxymethyl)pyrrolidin-3-yl]oxy}-1-oxo-2,3-dihydro-1H-isoindol-2-yl)piperidine-2,6-dione] | 123 | 28.4 | 9 | 11.4 | 7 | 29.4
7 | O=C(O)CC(CCO)c1ccc2cc(CN3CC[C@H](Oc4ccc5c(c4)CN([C@H]4CCC(=O)NC4=O)C5=O)C3)cc(F)c2n1 (relative stereo) [Example 99, rel-3-(6-{[(3S)-3-({2-[(3S)-2,6-dioxopiperidin-3-yl]-1-oxo-2,3-dihydro-1H-isoindol-5-yl}oxy)pyrrolidin-1-yl]methyl}-8-fluoroquinolin-2-yl)-5-hydroxypentanoic acid] | 73 | 78.7 | 282 | 82.9 | 75 | 39.0
8 | COC[C@@H]1CN(Cc2cc(F)c3nc(C4CCC(C(C)(C)O)CC4)ncc3c2)C[C@H]1Oc1ccc2c(c1)CN([C@H]1CCC(=O)NC1=O)C2=O (relative stereo) [Example 111, rel-(S)-3-(5-(((3S,4S)-1-((8-fluoro-2-(4-(2-hydroxypropan-2-yl)cyclohexyl)quinazolin-6-yl)methyl)-4-(methoxymethyl)pyrrolidin-3-yl)oxy)-1-oxoisoindolin-2-yl)piperidine-2,6-dione] | 26 | 16.4 | 1 | 7.8 | 1 | 27.1
9 | COC[C@@H]1CN(Cc2cc3ccc(C4CCC(C(C)(C)O)CC4)cc3cn2)C[C@H]1Oc1ccc2c(c1)CN([C@H]1CCC(=O)NC1=O)C2=O (relative stereo) [Example 112, rel-(S)-3-(5-(((3S,4S)-1-((7-(4-(2-hydroxypropan-2-yl)cyclohexyl)isoquinolin-3-yl)methyl)-4-(methoxymethyl)pyrrolidin-3-yl)oxy)-1-oxoisoindolin-2-yl)piperidine-2,6-dione] | 12 | 25.2 | – | 8.7 | 1 | 28.0
10 | O=C1CC[C@H](N2Cc3cc(O[C@@H]4CN(Cc5cc(F)c6nc(C7CCOCC7)ccc6c5)C[C@H]4c4ccccc4)ccc3C2=O)C(=O)N1 (relative stereo) [Example 116, (S)-3-(5-(((3S*,4R*)-1-((8-fluoro-2-(tetrahydro-2H-pyran-4-yl)quinolin-6-yl)methyl)-4-phenylpyrrolidin-3-yl)oxy)-1-oxoisoindolin-2-yl)piperidine-2,6-dione] | 2590 | 89.1 | 1 | 83.5 | – | 85.0
